In patent US12565480B2, “Thiophene derivatives as xanthine oxidase inhibitors and application thereof” (Tonghua Dongbao Pharmaceutical Co., Ltd., priority 2019, dated 2026):

Key:
CYP2D6 = CYP2D6 (Homo sapiens (Human), UniProt P10635); test: Cytochrome P450 isozyme inhibitory activity test, CYP2D6; type: in vitro ADME; settings: human liver microsomes; read-out: Cytochrome P450 isoenzyme IC50, CYP2D6
Description: (§1) Cytochrome P450 Isozyme Inhibitory Activity Test
(§2) The inhibitory activities of test compounds against different subtypes of human cytochrome P450 isoenzymes were determined.
(§3) Preparing test compounds, standard inhibitor (100×final concentration) and mixed substrate working solutions; Microsomes (purchased from Corning Inc) frozen in −80° C. freezer was taken out and thawed. 20 μL of the test compound and standard inhibitor solution were added to the corresponding wells, and at the same time 20 μL of the corresponding solvent was added to the no inhibitor control wells (NIC) and blank control wells (Blank); then 20 μL of mixed substrate solution was added to the corresponding wells, except for Blank wells (adding 20 μL of Phosphate Buffer (PB) to Blank wells); the human liver microsome solution was prepared (marking the date after use and putting back in the refrigerator immediately), then 158 μL of human liver microsome solution was immediately added to all wells; the above sample plate was pre-incubated in a 37° C. water bath, and then coenzyme factor (NADPH) solution was prepared; 10 minutes later, 20 μL of NADPH solution was added to all wells. […]

CYP2C9 = CYP2C9 (Homo sapiens (Human), UniProt P11712); test: Cytochrome P450 isozyme inhibitory activity test, CYP2C9; type: in vitro ADME; settings: human liver microsomes; read-out: Cytochrome P450 isoenzyme IC50, CYP2C9
Description: as §1, §2, §3

CYP1A2 = CYP1A2 (Homo sapiens (Human), UniProt P05177); test: Cytochrome P450 isozyme inhibitory activity test, CYP1A2; type: in vitro ADME; settings: human liver microsomes; read-out: Cytochrome P450 isoenzyme IC50, CYP1A2
Description: as §1, §2, §3

Human hepatocytes = test: Hepatocytes metabolic stability (HMS), human hepatocytes; type: in vitro ADME; settings: for Intrinsic hepatic clearance, Human: CLint(liver)
Description: (§4) Assay Example 3: Hepatocytes Metabolic Stability (HMS) Study
(§5) To test the metabolic stability of the test sample in human and rat hepatocytes.
(§6) 2.1 Test compound (10 mM), control substance: 7-Ethoxycoumarin (30 mM), 7-Hydroxycoumarin (control substance, 30 mM)
(§7) 2.3 Buffer System: • Thawing medium: Williams' medium E containing 5% fetal bovine serum, 30% Percoll solution and other auxiliary materials • Incubation medium: Williams medium E (without phenol red) containing 2 mM L-glutamine and 25 mM hydroxyethylpiperazine ethane sulfonic acid. • Stop solution: 200 ng/mL of tosylbutyramide and labetalol in acetonitrile as internal standards. • Dilution solution: Ultrapure water. 3. Method of the Assay • 1) The exact amount of positive control compound was dissolved in dimethyl sulfoxide (DMSO) to give a 30 mM solution • 2) 10 mM test compound and 30 mM positive control compound were diluted to 1 mM and 3 mM with DMSO in 96-well plates. • 3) 1 mM test compound and 3 mM positive control compound was diluted into 100 μM and 300 μM quantification solutions with acetonitrile. • 4) The cryopreserved cells were thawed, dissociated and suspended in culture medium, and then diluted to 0.5×10^6 cells/mL with pre-warmed culture medium. • 5) 198 μL of pre-warmed cell suspension was added to a 96-well plate. • 6) 100 μL of stop solution (acetonitrile containing 200 ng/mL tosylbutyramide and 200 ng/mL labetalol as internal standard) was transferred in a set of pre-labeled 96-well plates. • 7) 2 μL of 100 μM test compound or 300 μM positive control quantitation solution was added in duplicate to each well of the 96-well plate. • 8) The TO samples were mixed to achieve uniform suspension over about 1 min, and then 20 μL of each sample was immediately transferred into wells containing 100 μL of ice-cold stop solution followed by mixing. • 9) All plates were incubated at 37° C. in 5% CO2 in a 95% humidified incubator, with constant shaking at approximately 600 rpm for reaction. • 10) At 15, 30, 60 and 90 min, samples were mixed, and then 20 μL of each sample was transferred to wells containing 100 μL of ice-cold stop solution at each time point and mixed. • 11) Medium control (MC) sample plates (labeled as TO-MC and T90-MC) were prepared at TO and T90 by adding the same components to each well except for the cell suspension. […]
(§8) The elimination rate constant k of the test compound and the control compound in hepatocytes was calculated by plotting the logarithm of the residual ratio vs time, and the half-life (T1/2) and in vitro intrinsic clearance rate (CLint) were obtained by using the elimination rate k. […]

[1] = Pharmacokinetics in SD rats
Description: Pharmacokinetics of test compounds in SD rats
Sprague Dawley Rat (male, 180-350 g, 6-10 weeks old, Charles River Laboratories, Beijing)
Six male SD rats were divided into 2 groups. […] Whole blood was collected at 0 (the gavage group only), 0.083 (intravenous only), 0.25, 0.5, 1, 2, 4, 8 and 24 hours after administration. Whole blood was centrifuged at 3200 g at 4° C. for 10 min to obtain plasma.

MDR1-MDCK II cells = settings: for Papp (AB) / Papp (BA): 2 μM, pH 7.4, […]; for Papp (AB): A to B; for Papp (BA): B to A
Description: Membrane Permeability MDR1 Test
MDR1-MDCK II cells are Madin-Darby canine kidney cells transfected with human MDR1 gene, which can stably express high P-gp. The aim of this study was to test the bidirectional permeability of compounds across the MDR1-MDCK II cell model and to assess whether they are transported by efflux.
Test compounds were diluted in transport buffer (HBSS, 10 mM Hepes with DMSO, pH 7.4) to a concentration of 2 μM (DMSO<1%) and applied on the apical or basolateral side of the cell monolayer. The compound to be tested was tested in duplicate in the direction of from A to B or from B to A, digoxin was tested at 10 μM in the direction of from A to B or from B to A, while nadolol and metoprolol were tested at 2 μM from A to B. Plates were incubated in a CO2 incubator at 37±1° C. in a saturated humidity of 5% CO2 for 2.5 hours without shaking. In addition, the efflux ratio of each compound was determined, and for the test and reference compounds quantitation was conducted. Analysis was carried out by LC/MS/MS according to the peak area ratio of analyte/IS. After the transport assay, the Lucifer Yellow exclusion assay was used to determine integrity of the cell monolayer. The buffer was removed from the apical and basolateral compartments, then 75 μL of 100 μM luciferin yellow was added to the transport buffer, and 250 μL of the transport buffer was added to the apical and basolateral compartments, respectively. The plate was incubated at 37° C., 5% CO2 and saturated humidity for 30 minutes without shaking. After 30 minutes of incubation, 20 μL of luciferin yellow sample was withdrawn from the apical, followed by the addition of 60 μL of transport buffer. An 80 μL luciferin yellow sample was then collected basolaterally.
The apparent permeability coefficient (Papp, cm/s), efflux rate and recovery rate were calculated using the following formulae.
[formula] dCr/dt is the cumulative concentration of the compound at the receiver end over unit time (μM/s); Vr is the volume of the receiver end solution (0.075 mL and 0.250 mL for the apical and basal ends, respectively); Ais the relative surface area (0.0804 cm^2) of the cell monolayer; C0 is the initial concentration (nM) of the test substance at the administration end or the peak area ratio of the reference substance.
[formula] C0 is the initial concentration (nM) of the test substance at the administration end or the peak area ratio of the reference substance; Va is the volume of the administration end (0.075 mL for the apical side and 0.250 mL for the basal side); Cd and Cr are the final concentration (nM) of the test substance at the administration end and the receiver end or the peak area ratio of the reference substance.

Rat hepatocytes = test: Hepatocytes metabolic stability (HMS), rat hepatocytes; type: in vitro ADME; settings: for Intrinsic hepatic clearance, Rat: CLint(liver)
Description: as §4, §5, §6, §7, §8

CYP3A4-M = CYP3A4-M (Homo sapiens (Human), UniProt P08684); test: Cytochrome P450 isozyme inhibitory activity test, CYP3A4-M; type: in vitro ADME; settings: human liver microsomes; read-out: Cytochrome P450 isoenzyme IC50, CYP3A4-M
Description: as §1, §2, §3

CYP2C19 = CYP2C19 (Homo sapiens (Human), UniProt P33261); test: Cytochrome P450 isozyme inhibitory activity test, CYP2C19; type: in vitro ADME; settings: human liver microsomes; read-out: Cytochrome P450 isoenzyme IC50, CYP2C19
Description: as §1, §2, §3

[2] = 2 subjects; cited from earlier work
[3] = high dose of 80 mg/day; cited from earlier work

CYP2C9, sequence (P11712 whole entry): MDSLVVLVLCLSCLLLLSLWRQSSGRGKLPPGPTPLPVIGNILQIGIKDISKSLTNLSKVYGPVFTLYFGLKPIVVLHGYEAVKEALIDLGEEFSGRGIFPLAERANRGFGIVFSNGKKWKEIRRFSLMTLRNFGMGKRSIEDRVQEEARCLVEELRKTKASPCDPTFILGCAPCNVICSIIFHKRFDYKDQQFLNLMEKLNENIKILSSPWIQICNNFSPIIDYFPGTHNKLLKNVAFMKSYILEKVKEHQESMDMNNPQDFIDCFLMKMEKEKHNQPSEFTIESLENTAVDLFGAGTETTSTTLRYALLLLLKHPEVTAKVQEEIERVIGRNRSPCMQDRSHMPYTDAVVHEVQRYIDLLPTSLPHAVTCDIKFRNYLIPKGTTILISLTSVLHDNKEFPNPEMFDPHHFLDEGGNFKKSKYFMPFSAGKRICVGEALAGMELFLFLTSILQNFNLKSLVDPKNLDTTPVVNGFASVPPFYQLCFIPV
CYP1A2, sequence (P05177 whole entry): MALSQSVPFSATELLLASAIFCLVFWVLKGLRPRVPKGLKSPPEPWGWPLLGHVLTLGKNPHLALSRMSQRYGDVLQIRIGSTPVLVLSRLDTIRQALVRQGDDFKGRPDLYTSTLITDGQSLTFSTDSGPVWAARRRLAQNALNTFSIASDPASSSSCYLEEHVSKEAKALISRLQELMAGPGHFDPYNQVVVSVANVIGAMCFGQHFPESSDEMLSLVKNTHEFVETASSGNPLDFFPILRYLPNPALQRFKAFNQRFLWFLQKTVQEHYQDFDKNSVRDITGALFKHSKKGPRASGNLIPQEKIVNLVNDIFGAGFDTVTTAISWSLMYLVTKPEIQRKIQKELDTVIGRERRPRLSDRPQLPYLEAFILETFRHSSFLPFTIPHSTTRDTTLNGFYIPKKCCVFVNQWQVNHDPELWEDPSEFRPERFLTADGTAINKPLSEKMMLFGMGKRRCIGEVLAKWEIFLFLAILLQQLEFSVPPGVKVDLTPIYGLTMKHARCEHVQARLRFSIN
CYP2D6, sequence (P10635 whole entry): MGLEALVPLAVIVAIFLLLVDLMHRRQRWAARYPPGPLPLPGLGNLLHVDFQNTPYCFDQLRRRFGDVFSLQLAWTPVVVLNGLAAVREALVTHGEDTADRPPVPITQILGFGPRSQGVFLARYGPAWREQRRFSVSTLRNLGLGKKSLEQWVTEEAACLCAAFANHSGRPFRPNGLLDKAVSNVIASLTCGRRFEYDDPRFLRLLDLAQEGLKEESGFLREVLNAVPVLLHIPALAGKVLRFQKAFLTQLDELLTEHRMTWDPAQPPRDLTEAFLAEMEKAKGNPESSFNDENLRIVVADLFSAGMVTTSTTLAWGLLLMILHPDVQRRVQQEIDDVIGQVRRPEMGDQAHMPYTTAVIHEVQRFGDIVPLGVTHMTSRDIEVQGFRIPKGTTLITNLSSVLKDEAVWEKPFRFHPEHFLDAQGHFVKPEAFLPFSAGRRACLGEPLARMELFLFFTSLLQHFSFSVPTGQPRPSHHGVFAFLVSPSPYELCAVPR
CYP2C19, sequence (P33261 whole entry): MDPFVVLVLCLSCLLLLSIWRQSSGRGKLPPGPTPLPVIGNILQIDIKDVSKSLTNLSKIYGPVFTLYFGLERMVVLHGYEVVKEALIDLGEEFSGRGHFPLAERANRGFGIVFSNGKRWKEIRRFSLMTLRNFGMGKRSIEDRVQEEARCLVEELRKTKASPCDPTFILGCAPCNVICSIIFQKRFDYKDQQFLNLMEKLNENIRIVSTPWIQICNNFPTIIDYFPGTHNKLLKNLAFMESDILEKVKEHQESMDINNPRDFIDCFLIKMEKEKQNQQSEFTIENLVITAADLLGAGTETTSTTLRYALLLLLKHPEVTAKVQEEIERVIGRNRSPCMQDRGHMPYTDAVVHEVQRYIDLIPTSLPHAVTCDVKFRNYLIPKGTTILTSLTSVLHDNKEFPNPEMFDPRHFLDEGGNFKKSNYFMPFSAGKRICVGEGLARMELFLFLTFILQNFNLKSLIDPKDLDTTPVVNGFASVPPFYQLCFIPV
CYP3A4-M, sequence (P08684 whole entry): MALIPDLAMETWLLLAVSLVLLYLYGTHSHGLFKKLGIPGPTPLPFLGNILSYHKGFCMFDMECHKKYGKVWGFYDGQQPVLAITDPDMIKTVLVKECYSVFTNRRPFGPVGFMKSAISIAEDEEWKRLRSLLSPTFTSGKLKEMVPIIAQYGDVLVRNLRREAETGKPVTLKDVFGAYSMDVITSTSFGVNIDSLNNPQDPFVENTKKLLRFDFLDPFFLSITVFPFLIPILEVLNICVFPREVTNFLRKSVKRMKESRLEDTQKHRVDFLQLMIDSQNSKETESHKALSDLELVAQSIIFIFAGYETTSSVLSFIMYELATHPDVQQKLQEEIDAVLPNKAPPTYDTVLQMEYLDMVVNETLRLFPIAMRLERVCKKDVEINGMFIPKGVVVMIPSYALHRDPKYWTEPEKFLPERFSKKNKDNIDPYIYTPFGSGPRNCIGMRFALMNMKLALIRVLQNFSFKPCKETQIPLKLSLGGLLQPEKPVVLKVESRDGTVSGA

SMILES	IC50 (CYP2D6) [µM]	IC50 (CYP2C9) [µM]	IC50 (CYP1A2) [µM]	Clearance in human hepatocytes (in words) (Human hepatocytes)	Intrinsic hepatic clearance, Human (Human hepatocytes) [mL/min/kg]	Permeability (in words) (MDR1-MDCK II cells)	Papp (AB) (MDR1-MDCK II cells)	Papp (BA) (MDR1-MDCK II cells)	Clearance in rat hepatocytes (in words) (Rat hepatocytes)	Intrinsic hepatic clearance, Rat (Rat hepatocytes) [mL/min/kg]	IC50 (CYP3A4-M) [µM]	IC50 (CYP2C19) [µM]	further results
N#Cc1sc(-c2ccc(C(=O)O)c(O)c2)c2c1CCC(F)(F)C2 [Compound 2]	> 50	18.1	> 50	moderate clearance	31.8	high permeability	26.42 10^−6 cm/s	6.63 10^−6 cm/s	high clearance	188.4	> 50	> 50	Pharmacokinetic properties (in words) [1]: good pharmacokinetic properties; AUC0-inf ([1]; 2.89 mpk Intravenous injection): 41.8 µM·h; C0 ([1]; 2.89 mpk Intravenous injection): 96.6 µM; Cl ([1]; 2.89 mpk Intravenous injection): 3.59 mL/min/kg; T1/2 ([1]; 2.89 mpk Intravenous injection): 3.74 h; Vdss ([1]; 2.89 mpk Intravenous injection): 0.32 L/kg; AUC0-inf ([1]; 8.58 mpk Oral): 86.6 µM·h; Cmax ([1]; 8.58 mpk Oral): 27.5 µM; T1/2 ([1]; 8.58 mpk Oral): 2.47 h; Tmax ([1]; 8.58 mpk Oral): 0.5 h; Bioavailability ([1]; 8.58 mpk Oral vs 2.89 mpk Intravenous injection): 62.1%; Oral bioavailability (in words) ([1]; oral): high oral bioavailability
N#Cc1sc(-c2ccc(C(=O)O)c(O)c2)c2c1CCC2 [Compound 3]	> 50	14.8	> 50	moderate clearance	48.2	high permeability	38.63 10^−6 cm/s	10.99 10^−6 cm/s	high clearance	1097.9	> 50	> 50	
N#Cc1cn(-c2ccc(C(=O)O)c(O)c2)c2ccccc12 [PF-06743649]													Side effects after administration in clinical phase I trial [2]: acute PF-06743649-induced renal injury side effects
Cc1nc(-c2ccc(OCC(C)C)c(C#N)c2)sc1C(=O)O [febusteine]													Patients who do not achieve the expected goal of lowing uric acid [3]: 40% to 52
